These results are taken from PMC12032302, “A20 attenuates oxidized self-DNA-mediated inflammation in acute kidney injury” (Signal Transduction and Targeted Therapy, 2025).

One experiment deals with BMDMs. Briefly: ox-dsDNA-induced pyroptosis in BMDMs (GSDMD cleavage, IL-1β, IL-18, LDH release). The class given is cell-based, mouse. As to conditions: ox-dsDNA90, 12 h pretreated P-II (0, 5, 10, 20 μM), n = 3, Supplementary Fig. 4f-i. The protocol:
Primary bone marrow-derived macrophages (BMDMs) were isolated from 6- to 8-week-old C57BL/6J male mice. The mice were sacrificed and soaked in 75% alcohol for 1–2 min. The femurs and tibias were removed and immersed in PBS containing 500 U/mL penicillin and […] streptomycin for 3 min. The marrow cavities were repeatedly rinsed with DMEM using a sterile 1 mL syringe. The cell suspension was collected and centrifuged at 300 × g for 10 min, and the supernatant was discarded. The cell pellet was resuspended in 5 mL red cell lysis buffer (Bio Sharp, Cat#BL503A) on ice for 5 min, followed by centrifugation, and the supernatant was removed. The cells were then resuspended in DMEM complete culture medium supplemented with 10% FBS and 30% L929 cell-conditioned medium as an induction factor.[51] Half of the medium was changed every other day for 5–7 days. The suspended cells were removed, and the adherent BMDMs were digested with trypsin and plated on a six-well plate at a density of 1 × 10^6 cells/well. […]
To measure the levels of CXCL10, IFN-β, IL-1β, and IL-18, mouse serum or cell culture medium was collected and measured by ELISA (NeoBioscience, China) according to the manufacturer’s instructions.
To measure the release of LDH, cell culture medium was collected and measured by CytoTox96@Non-Radio cytotoxicity Assay (Promega, REF#G1781) according to the manufacturer’s instructions.

The test system of the next experiment is AKI mice. Nature of the experiment: tubular injury / renal injury of AKI mice (HE histology). The class given is in vivo, mouse. The following applies: Cis-treated mice; A20-derived peptide 15 mg/kg i.p., pretreated; n = 9. Here is the method:
LPS (Sigma, Cat#L2630) was dissolved in PBS to 2.5 mg/mL for one-time intraperitoneal 25 mg/kg injection; deoxyribonuclease I (DNase I, Sigma, Cat#SLBV1446) was dissolved in PBS to 1 mg/mL and injected intraperitoneally at a dose of 10 mg/kg at 4 h before cisplatin or AA I injection and every 24 h after injection. Disulfiram (MedChemExpress, CAS:97-77-8) was diluted in corn oil to 12.5 mg/mL and injected 50 mg/kg intraperitoneally every 24 h after cisplatin or AA I administration. Cu(II) (Sigma, Cat#344419) was dissolved in PBS to 30 µg/mL and administered intraperitoneally 6 h before disulfiram at a dose of 0.15 mg/kg; TNF-α (Peprotech, Cat#315-01 A) was dissolved in PBS to 10 µg/mL and injected at 100 µg/kg once through the caudal vein 24 h before cisplatin injection. […] MCC950 (MedChem Express, CAS:256373-96-3) was dissolved in PBS to 5 mg/mL and injected intraperitoneally at a dose of 50 mg/kg 12 h before cisplatin or AA I injection and every 12 h after injection; berberine (APExBIO, Cat#N1368) was dissolved in PBS to 5 mg/mL and 5 mg/kg injected intraperitoneally at 36, 24 and 12 h before cisplatin; […] To supervise the effects of various treatments on survival time and rate, the mice were observed, and survival curves were generated. To investigate the specific mechanisms, whole blood was retrieved from the orbit, serum was separated through centrifugation on the 4th day, and the mice were then sacrificed by cervical dislocation. Mice were randomly assigned in experiments, while there was no blinding during the animal experiments. Renal function was evaluated based on serum creatinine level and histological features. Serum creatinine was determined in the Clinical Pharmacology Lab, Clinical Trial Center, WCH, SCU. The kidneys were extracted from euthanized mice, immediately fixed with 4% paraformaldehyde, and embedded in paraffin. Furthermore, the samples were cut into 5 µm thick sections. These tissue samples were subjected to hematoxylin-eosin (HE) and […] according to standard protocols with HE reagent (Biosharp, Cat#BL702B, BL703B) and Masson reagent (Servicebio, Cat#G1006-100ML). The pathological changes were detected through optical microscopy, and the tubulointerstitial injury score was determined as previously reported.

Entries after “also recorded” stand apart in the source; their conditions may differ. Residues, ends and D or L forms follow the SMILES beside them.

Regarding `CSCC[C@H](NC(=O)[C@H](Cc1ccc(O)cc1)NC(=O)[C@H](CCC(N)=O)NC(=O)[C@H](CS)NC(=O)[C@H](C)NC(=O)[C@H](C)NC(=O)[C@H](Cc1c[nH]cn1)NC(=O)[C@H](CCSC)NC(=O)[C@H](CC(C)C)NC(=O)[C@H](CS)NC(=O)[C@H](CC(N)=O)NC(=O)CNC(=O)[C@H](CC(=O)O)NC(=O)CNC(=O)[C@H](CC(N)=O)NC(=O)[C@@H](NC(=O)[C@H](CCCCN)NC(=O)[C@H](CC(C)C)NC(=O)[C@H](C)NC(=O)[C@@H](NC(=O)[C@H](CC(C)C)NC(=O)[C@@H](N)CCCCN)C(C)C)[C@@H](C)O)C(=O)N[C@@H](Cc1c[nH]c2ccccc12)C(=O)NCC(=O)N[C@H](C(=O)N[C@@H](CCC(N)=O)C(=O)N[C@@H](CC(=O)O)C(=O)N[C@H](C(=O)N[C@@H](CC(=O)O)C(=O)O)[C@@H](C)O)C(C)C` [P-II] (H-KLVALKTNGDGNCLMHAACQYMWGVQDTD-OH; N-terminus and C-terminus assumed), the “inhibition of ox-DNA-induced pyroptosis” value with BMDMs is on record as “significantly alleviates ox-dsDNA-induced pyroptosis; also recorded: inhibiting ox-self-DNA-induced pyroptosis”. Besides, the “renal injury (in words)” value with AKI mice is “alleviated the serum creatinine and renal injury”.
